Assay results reported in patent US20260028365A1 (BIOGEN MA INC., priority 2022, published 2026).
Where two headings read alike, the source gives them in different places.

Legend:
JH2 domain of human Tyk2 = JH2 domain of human Tyk2 (Homo sapiens (Human), UniProt P29597); experiment: JH2 Biochemical Assay (TR-FRET probe displacement); format: binding
Tyk2 = Tyk2 (Homo sapiens (Human), UniProt P29597); experiment: pSTAT4 Cell Assay (MSD, NK92 cells); format: cell-based
[1] = JH2 domain of human Tyk2, TR-FRET probe displacement
[2] = TR-FRET probe displacement, JH2 domain
[3] = TR-FRET probe displacement, JH2 domain of human Tyk2

Sequence of Tyk2 (P29597 whole entry, the tested form may be a part): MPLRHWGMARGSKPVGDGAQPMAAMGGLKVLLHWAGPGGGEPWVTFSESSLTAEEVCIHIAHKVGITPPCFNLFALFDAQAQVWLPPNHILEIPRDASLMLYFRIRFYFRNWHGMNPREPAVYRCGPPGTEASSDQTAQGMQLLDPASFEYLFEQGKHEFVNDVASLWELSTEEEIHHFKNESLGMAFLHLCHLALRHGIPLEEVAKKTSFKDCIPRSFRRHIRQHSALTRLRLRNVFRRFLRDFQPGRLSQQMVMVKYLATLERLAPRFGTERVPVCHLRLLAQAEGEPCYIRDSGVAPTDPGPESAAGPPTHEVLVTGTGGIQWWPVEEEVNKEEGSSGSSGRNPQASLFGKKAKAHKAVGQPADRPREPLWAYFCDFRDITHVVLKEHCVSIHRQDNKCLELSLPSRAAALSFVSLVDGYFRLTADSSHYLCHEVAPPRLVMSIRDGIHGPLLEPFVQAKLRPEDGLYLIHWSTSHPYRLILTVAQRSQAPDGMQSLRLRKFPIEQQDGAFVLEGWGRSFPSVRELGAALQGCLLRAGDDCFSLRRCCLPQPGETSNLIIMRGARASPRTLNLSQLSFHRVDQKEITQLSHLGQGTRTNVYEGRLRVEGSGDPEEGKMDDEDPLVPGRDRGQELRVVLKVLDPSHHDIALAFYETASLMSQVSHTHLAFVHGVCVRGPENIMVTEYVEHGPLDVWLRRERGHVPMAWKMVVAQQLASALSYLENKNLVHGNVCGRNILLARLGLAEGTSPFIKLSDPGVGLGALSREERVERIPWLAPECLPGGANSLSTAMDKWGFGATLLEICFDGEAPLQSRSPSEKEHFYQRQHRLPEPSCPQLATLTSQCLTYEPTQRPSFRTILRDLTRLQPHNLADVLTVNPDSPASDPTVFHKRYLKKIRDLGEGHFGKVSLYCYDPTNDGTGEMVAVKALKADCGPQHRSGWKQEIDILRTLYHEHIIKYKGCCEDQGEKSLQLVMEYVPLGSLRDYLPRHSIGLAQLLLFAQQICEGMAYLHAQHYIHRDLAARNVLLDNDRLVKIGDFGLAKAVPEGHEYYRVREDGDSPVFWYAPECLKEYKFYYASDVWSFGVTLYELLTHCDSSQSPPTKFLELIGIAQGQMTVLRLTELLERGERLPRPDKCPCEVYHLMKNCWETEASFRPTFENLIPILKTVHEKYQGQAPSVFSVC
Sequence of JH2 domain of human Tyk2 (P29597 575-876): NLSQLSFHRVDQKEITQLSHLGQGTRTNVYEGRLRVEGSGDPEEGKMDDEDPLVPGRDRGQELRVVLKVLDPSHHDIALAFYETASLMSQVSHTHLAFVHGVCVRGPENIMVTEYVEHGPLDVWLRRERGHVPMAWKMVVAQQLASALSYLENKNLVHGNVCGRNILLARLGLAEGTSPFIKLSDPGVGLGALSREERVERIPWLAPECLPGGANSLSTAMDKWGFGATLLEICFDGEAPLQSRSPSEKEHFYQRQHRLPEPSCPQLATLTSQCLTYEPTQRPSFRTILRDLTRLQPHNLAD

Row | Structure (SMILES) | IC50 (JH2 domain of human Tyk2; [1]) [nM] | IC50 (Tyk2; MSD) [nM] | IC50 (JH2 domain of human Tyk2; [2]) [nM] | IC50 (Tyk2) [nM] | IC50 (JH2 domain of human Tyk2; [3]) [nM]
1 | CC(=O)Nc1cc(Nc2cc(C)nc(C(C)(F)F)n2)c(OCC2(C)CCOC2)cn1 (stereo not drawn) [Example 431, N-(4-((2-(1,1-difluoroethyl)-6-methylpyrimidin-4-yl)amino)-5-((3-methyltetrahydrofuran-3-yl)methoxy)pyridin-2-yl)acetamide] | ≤ 10 | 100 to 1000 |  |  | 
2 | CCOCCOc1cnc(NC(C)=O)cc1Nc1cc(C)nc(C(C)(F)F)n1 [Example 507, N-(4-((2-(1,1-difluoroethyl)-6-methylpyrimidin-4-yl)amino)-5-(2-ethoxyethoxy)pyridin-2-yl)acetamide] | ≤ 10 | ≤ 10 |  |  | 
3 | CCc1cc(Nc2cc(NC(C)=O)ncc2-c2ccc(COC)cn2)nc(C(C)(F)F)n1 [Example 846, N-(4′-((2-(1,1-difluoroethyl)-6-ethylpyrimidin-4-yl)amino)-5-(methoxymethyl)-[2,3′-bipyridin]-6′-yl)acetamide] |  |  | ≤ 10 | ≤ 10 | 
4 | CCOc1cc(-c2cnc(NC(C)=O)cc2Nc2cc(C)nc(C(C)(F)F)n2)ncn1 [Example 243, N-(4-((2-(1,1-difluoroethyl)-6-methylpyrimidin-4-yl)amino)-5-(6-ethoxypyrimidin-4-yl)pyridin-2-yl)acetamide] |  | 10 to 100 |  |  | ≤ 10
5 | CC(=O)Nc1cc(Nc2cc(C)nc(C(C)(F)F)n2)c([C@@H]2C[C@@H]2C#N)cn1 (relative stereo) [Example 810, rel-N-(5-((1R,2S)-2-cyanocyclopropyl)-4-((2-(1,1-difluoroethyl)-6-methylpyrimidin-4-yl)amino)pyridin-2-yl)acetamide] |  |  | 10 to 100 | ≥ 1000 | 
6 | CC(=O)Nc1cc(Nc2ccnc(C(C)(F)F)n2)c(-c2csc(C#N)n2)cn1 [Example 790, N-(5-(2-cyanothiazol-4-yl)-4-((2-(1,1-difluoroethyl)pyrimidin-4-yl)amino)pyridin-2-yl)acetamide] |  |  | ≤ 10 | ≤ 10 | 
7 | CC(=O)Nc1cc(Nc2cc(C)nc(C(C)(F)F)n2)c(OCC2CN(C)C2)cn1 [Example 506, N-(4-((2-(1,1-difluoroethyl)-6-methylpyrimidin-4-yl)amino)-5-((1-methylazetidin-3-yl)methoxy)pyridin-2-yl)acetamide] | ≤ 10 | 100 to 1000 |  |  | 
8 | CC(=O)Nc1cc(Nc2ccnc(C(C)(F)F)n2)c(-c2ccc(CN3CCC4(COC4)C3)cn2)cn1 [Example 703, N-(5-((2-oxa-6-azaspiro[3.4]octan-6-yl)methyl)-4′-((2-(1,1-difluoroethyl)pyrimidin-4-yl)amino)-[2,3′-bipyridin]-6′-yl)acetamide] | ≤ 10 | ≤ 10 |  |  | 
9 | CO[C@@H](C)COc1cnc(NC(C)=O)cc1Nc1cc(OC2CC2)nc(C(C)(F)F)n1 [Example 299, (S)-N-(4-((6-cyclopropoxy-2-(1,1-difluoroethyl)pyrimidin-4-yl)amino)-5-(2-methoxypropoxy)pyridin-2-yl)acetamide] |  | ≤ 10 |  |  | ≤ 10
10 | CC(=O)Nc1cc(Nc2cc(C)nc(C(C)(F)F)n2)c(OC[C@H]2CCC(=O)N2)cn1 [Example 502, (R)-N-(4-((2-(1,1-difluoroethyl)-6-methylpyrimidin-4-yl)amino)-5-((5-oxopyrrolidin-2-yl)methoxy)pyridin-2-yl)acetamide] | ≤ 10 | 100 to 1000 |  |  | 
11 | CC(=O)Nc1cc(Nc2cc(C)nc(C(C)(F)F)n2)c(-c2cc(C)n(C)n2)cn1 [Example 619, N-(4-((2-(1,1-difluoroethyl)-6-methylpyrimidin-4-yl)amino)-5-(1,5-dimethyl-1H-pyrazol-3-yl)pyridin-2-yl)acetamide] | ≤ 10 | ≤ 10 |  |  | 
12 | COCCN(C)c1nc(-c2cnc(NC(C)=O)cc2Nc2cc(C)nc(C(C)(F)F)n2)cs1 [Example 772, N-(4-((2-(1,1-difluoroethyl)-6-methylpyrimidin-4-yl)amino)-5-(2-((2-methoxyethyl)(methyl)amino)thiazol-4-yl)pyridin-2-yl)acetamide] |  |  | ≤ 10 | ≤ 10 | 
13 | CC(=O)Nc1cc(Nc2cc(C)nc(C(C)(F)F)n2)c(-c2ncc(C)cn2)cn1 [Example 595, N-(4-((2-(1,1-difluoroethyl)-6-methylpyrimidin-4-yl)amino)-5-(5-methylpyrimidin-2-yl)pyridin-2-yl)acetamide] | ≤ 10 | 10 to 100 |  |  | 
14 | CC(=O)Nc1cc(Nc2ccnc(C(C)(F)F)n2)c(-c2nc(C)ns2)cn1 [Example 716, N-(4-((2-(1,1-difluoroethyl)pyrimidin-4-yl)amino)-5-(3-methyl-1,2,4-thiadiazol-5-yl)pyridin-2-yl)acetamide] | ≤ 10 | 10 to 100 |  |  | 
15 | CCOc1cnc(NC(C)=O)cc1Nc1cc(O[C@H]2C[C@@H](OC)C2)cc(C(C)(F)F)n1 [Example 15, N-(4-((6-(1,1-difluoroethyl)-4-((1s,3s)-3-methoxycyclobutoxy)pyridin-2-yl)amino)-5-ethoxypyridin-2-yl)acetamide] |  | 10 to 100 |  |  | ≤ 10
16 | CC(=O)Nc1cc(Nc2cc(C)nc(C(C)(F)F)n2)c(OCc2cnn(C)c2C)cn1 [Example 138, N-(4-((2-(1,1-difluoroethyl)-6-methylpyrimidin-4-yl)amino)-5-((1,5-dimethyl-1H-pyrazol-4-yl)methoxy)pyridin-2-yl)acetamide] |  | ≥ 1000 |  |  | 100 to 1000
17 | COCC1(COc2cnc(NC(C)=O)cc2Nc2cc(C)nc(C(C)(F)F)n2)CC1 [Example 326, N-(4-((2-(1,1-difluoroethyl)-6-methylpyrimidin-4-yl)amino)-5-((1-(methoxymethyl)cyclopropyl)methoxy)pyridin-2-yl)acetamide] |  | 10 to 100 |  |  | ≤ 10
18 | CC(=O)Nc1cc(Nc2cc(C)nc(C34COC(C3)C4)n2)c(-c2cc(C(F)F)ccn2)cn1 [Example 576, N-(4′-((2-(2-oxabicyclo[2.1.1]hexan-4-yl)-6-methylpyrimidin-4-yl)amino)-4-(difluoromethyl)-[2,3′-bipyridin]-6′-yl)acetamide] | ≤ 10 | 100 to 1000 |  |  | 
19 | CC(=O)Nc1cc(Nc2cc(C)nc(C(C)(F)F)n2)c(-c2cc(N(C)C)ccn2)cn1 [Example 627, N-(4′-((2-(1,1-difluoroethyl)-6-methylpyrimidin-4-yl)amino)-4-(dimethylamino)-[2,3′-bipyridin]-6′-yl)acetamide] | 100 to 1000 | ≥ 1000 |  |  | 
20 | CCc1cc(Nc2cc(NC(C)=O)ncc2-c2ccc(COC)cn2)nc(C2CCOC2)n1 (stereo not drawn) [Example 569, N-(4′-((6-ethyl-2-(tetrahydrofuran-3-yl)pyrimidin-4-yl)amino)-5-(methoxymethyl)-[2,3′-bipyridin]-6′-yl)acetamide] | ≤ 10 | ≤ 10 |  |  | 
21 | COc1cnc(NC(C)=O)cc1Nc1cc(-c2cc(OC)c3nc(C)cn3c2)nc(C(C)(F)F)n1 [Example 401, N-(4-((2-(1,1-difluoroethyl)-6-(8-methoxy-2-methylimidazo[1,2-a]pyridin-6-yl)pyrimidin-4-yl)amino)-5-methoxypyridin-2-yl)acetamide] | ≤ 10 | 100 to 1000 |  |  | 
22 | CC(=O)Nc1cc(Nc2cc(C)nc(C(C)(F)F)n2)c(OCC(F)F)cn1 [Example 24, N-(5-(2,2-difluoroethoxy)-4-((2-(1,1-difluoroethyl)-6-methylpyrimidin-4-yl)amino)pyridin-2-yl)acetamide] |  | 10 to 100 |  |  | ≤ 10
23 | CC(=O)Nc1cc(Nc2cc(C)nc([C@]34CO[C@](CF)(C3)C4)n2)c(-c2ccn(C)n2)cn1 [Example 560, N-(4-((2-((1s,4s)-1-(fluoromethyl)-2-oxabicyclo[2.1.1]hexan-4-yl)-6-methylpyrimidin-4-yl)amino)-5-(1-methyl-1H-pyrazol-3-yl)pyridin-2-yl)acetamide] | 10 to 100 | ≥ 1000 |  |  | 
24 | COCCOc1cnc(NC(C)=O)cc1Nc1cccc(C(C)(F)F)n1 [Example 56, N-(4-((6-(1,1-difluoroethyl)pyridin-2-yl)amino)-5-(2-methoxyethoxy)pyridin-2-yl)acetamide] |  | ≤ 10 |  |  | ≤ 10
25 | CNC(=O)Nc1cc(Nc2ccnc(C(C)(F)F)n2)c(-c2nc3c(s2)CN(C)CC3)cn1 [Example 795, 1-(4-((2-(1,1-difluoroethyl)pyrimidin-4-yl)amino)-5-(5-methyl-4,5,6,7-tetrahydrothiazolo[5,4-c]pyridin-2-yl)pyridin-2-yl)-3-methylurea] |  |  | ≤ 10 | ≤ 10 | 
26 | CC(=O)Nc1cc(Nc2cc(C)nc(C(C)(F)F)n2)c(OCCc2cccnc2F)cn1 [Example 328, N-(4-((2-(1,1-difluoroethyl)-6-methylpyrimidin-4-yl)amino)-5-(2-(2-fluoropyridin-3-yl)ethoxy)pyridin-2-yl)acetamide] |  | ≤ 10 |  |  | ≤ 10
27 | CC(=O)Nc1cc(Nc2cc(C)nc(C(C)(F)F)n2)c(-c2csc(N3CCOCC3)n2)cn1 [Example 234, N-(4-((2-(1,1-difluoroethyl)-6-methylpyrimidin-4-yl)amino)-5-(2-morpholinothiazol-4-yl)pyridin-2-yl)acetamide] |  | ≤ 10 |  |  | ≤ 10
28 | [2H]C([2H])([2H])Oc1cnc(NC(C)=O)cc1Nc1cc(OC2CC2)nc(C(C)(F)F)n1 [Example 415, N-(4-((6-cyclopropoxy-2-(1,1-difluoroethyl)pyrimidin-4-yl)amino)-5-(methoxy-d3)pyridin-2-yl)acetamide] | ≤ 10 | ≤ 10 |  |  | 
29 | CCc1cc(Nc2cc(NC(C)=O)ncc2-c2ccc(C(C)(C)O)cn2)nc(C(C)(F)F)n1 [Example 839, N-(4′-((2-(1,1-difluoroethyl)-6-ethylpyrimidin-4-yl)amino)-5-(2-hydroxypropan-2-yl)-[2,3′-bipyridin]-6′-yl)acetamide] |  |  | ≤ 10 | ≤ 10 | 
30 | CC(=O)Nc1cc(Nc2ccnc(C(C)(F)F)n2)c(-c2nnc(N3CCOCC3)s2)cn1 [Example 255, N-(4-((2-(1,1-difluoroethyl)pyrimidin-4-yl)amino)-5-(5-morpholino-1,3,4-thiadiazol-2-yl)pyridin-2-yl)acetamide] |  | ≤ 10 |  |  | ≤ 10
